Key:
293T cells = assay: In vitro delivery of luciferase mRNA by LNPs, 293T cells; format: cell-based, Human; settings: 100 ng luciferase mRNA per well, 24 h; ratio to naked mRNA control; result in words
Method: (§1) Human embryonic kidney cells (293T cells) and human non-small cell lung cancer cell lines (A549 cells) were obtained from the Chinese Type Culture Collection Center and cultured in DMEM high glucose culture medium containing 10% fetal bovine serum under the environment of 37°C and 5% CO2. The cells were inoculated in a 96-well cell culture plate in a density of 32,000 cells per well. LNPs coating mRNA expressing luciferase (Trilink, USA) were taken and added into the wells at a dose of 100 ng of mRNA per well. Meanwhile, control wells were set on each culture plate, and 100 ng of naked mRNA that was not coated by LNPs was added into each well. The cell culture plate was placed in a cell incubator for 24 h of co-culture under the conditions of 37°C and 5% CO2, and then the transfection effect of mRNA was detected through a One-LumiTM firefly luciferase reporter gene detection kit. The transfection results of LNPs in 293T cells are shown in FIG. 1 to FIG. 6 and FIG. 13 (upper), and the transfection results of LNPs in A549 cells are shown in FIG. 7 to FIG. 12 and FIG. 13 (lower). The transfection efficiency is expressed as a ratio of chemiluminescent intensity of LNP group to chemiluminescent intensity of control group (direct delivery of naked luciferase mRNA that is not coated by LNP).

A549 cells = assay: In vitro delivery of luciferase mRNA by LNPs, A549 cells; format: cell-based, human; settings: 100 ng luciferase mRNA per well, 24 h; ratio to naked mRNA control; result in words
Method: as §1

C57Bl/6 mice = assay: Luciferase mRNA delivery in mice, IVIS chemiluminescence; format: in vivo
Method: The animal experiments were reviewed and approved by the Ethics Committee of Zhejiang Medical College and the Ethics Committee of Zhejiang University of Technology. 6- to 8-week-old male C57Bl/6 mice were randomly grouped with 3 mice in each group. The mice in each group received a lipid nanoparticle coating mRNA expressing a luciferase via tail vein injection at a dose of 0.25 mg/kg mouse body weight (calculated by the mass of coated mRNA). […] The mRNA delivery effect of the lipid nanoparticle is quantitatively compared through a total chemiluminiscence quantity (Total Flux p/s) of a mouse whole body within unit time (shown in Table 5).
Table 13 and Table 14 show whole body chemiluminescent signals when LNPs (formulation 2) composed of the lipids in some examples deliver Flue mRNA in mice. The delivery dose of Flue mRNA was 0.25 mg/kg. 6 h after LNP injection, 150 mg/kg of D-luciferin was intraperitoneally injected into the mice, and then the whole body chemiluminescent signals were collected in the IVIS imaging system after 10 min. […]

[1] = Particle size detection of LNP (Brookhaven NanoBrook Omni, DLS); format: physicochemical
Method: Step 1. Preparation of a lipid solution and a nucleic acid solution: unless otherwise specified, all aqueous solutions involved in examples were prepared from deionized water without nucleases. An ionizable lipid, a phospholipid (disaturated phosphatidylcholine (DSPC) or dioleoylphosphatidylethanolamine (DOPE)), cholesterol and a PEG lipid (DMG-PEG2000) were mixed in a molar ratio of 50/10/38.5/1.5 (containing DSPC, formulation 1) or 36.5/16/46.5/2.5 (containing DOPE, formulation 2) and dissolved into an ethanol solution. Meanwhile, a nucleic acid (a mass ratio of ionizable lipid/nucleic acid was 10/1) was dissolved into a citrate buffer solution of pH=3, so that a final volume ratio of the ethanol solution to the citrate solution was 1/3.
Step 2. Preparation of LNP by mixing the lipid solution with the nucleic acid solution: the lipid ethanol solution and the nucleic acid aqueous solution that were prepared in Step 1 were respectively put into a sterile syringe and placed in a Precision Nanosystem Ignite instrument, the extrusion flow speeds of the ethanol solution and the water phase solution were respectively set as 3 ml/min and 9 ml/min in instrument program settings. A microfluidic chip was inserted into the instrument and LNP preparation was initiated, and then a solution mixed by the chip was collected.
Step 2.1. Preparation of an LNP solution coating nucleic acid in a porous plate: a solution of an ionizable lipid, a phospholipid (DSPC or DOPE), cholesterol and a PEG lipid (DMG-PEG2000) in ethanol was added into each well of a 96-well deep plate, so that a molar ratio of four component lipids in each well was 50/10/38.5/1.5 (containing DSPC, formulation 1) or 36.5/16/46.5/2.5 (containing DOPE, formulation 2). Then, a citrate buffer solution (pH=3, the mass of nucleic acid added into each well was 1/10 that of the ionizable lipid in this well) that was three times as ethanol in volume and dissolved with a nucleic acid molecule was quickly added into the well plate through a multi-channel pipette or an automatic liquid dispensing system and rapidly mixed, so as to obtain the LNP solution coating nucleic acid.
Step 3. Purification of the LNP solution: the LNP solution collected in Step 2 or Step 2.1 was subjected to dialysis-concentration-filtration operations, so as to obtain a final LNP solution coating nucleic acid for subsequent testing.
The LNP solution coating nucleic acid obtained in Step 3 was diluted so that the final lipid concentration was between 0.01 mg/ml and 0.1 mg/ml. The diluted solution was added into a sample reservoir, and then subjected to particle size detection in a Brookhaven NanoBrook Omni instrument.

[2] = Determination of total nucleic acid and encapsulation efficiency (Quant-iT RiboGreen RNA kit); format: physicochemical; settings: LNP with RSV-mRNA, lipid ratio of formulation 1, N/P 6
Method: The content of nucleic acids in an LNP sample was determined through a Quant-iT™ RiboGreen® RNA detection kit (Thermofisher). The detection of total RNA concentration: 5 µl of to-be-detected sample was placed into 2 ml of ep tube, 245 µl of 1xTE Buffer was added, and the above materials were evenly mixed to obtain a "diluted sample". 100 µl of the above "diluted sample" was taken, 100 µl of 10% TritonX-100 solution was added, the above materials were sufficiently and evenly mixed, and then the obtained mixture was demulsified for 15 min in metal bath under the conditions of 37°C and 300 rpm; and 80 µl of 1xTE Buffer was added into an ELISA plate, 20 µl of demulsified sample was taken and added into the ELISA plate to be evenly mixed, and then 100 µl of fluorescence dye (2000-fold dilution) solution was added.
Detection of free RNA concentration: 90 µl of 1xTE Buffer was added into the ELISA plate, 10 µl of the above "diluted sample" was taken, and 100 µl of fluorescence dye (2000-fold dilution) solution was added.
Meanwhile, a series of standard solutions having different concentrations were set in the ELISA plate as quantitative standard curves. The samples were loaded onto the ELISA plate to detect fluorescence signals (with an excitation wavelength of 480 nm and an emission detection wavelength of 520). A corresponding RNA concentration was obtained after the fluorescence signal in each well was converted via the standard curve.
Calculation method of encapsulation efficiency: EE(%) = (Concentration of total mRNA−concentration of free mRNA)/(Concentration of total mRNA)∗100% [formula]

[3] = LNP formulation 2 (SM102: formulation 1), luciferase mRNA 0.25 mg/kg, tail vein, C57Bl/6 mice, whole body signal 6 h after LNP, 10 min after D-luciferin 150 mg/kg i.p.
[4] = LNPs after coating mRNA (luciferase)
[5] = LNPs (formulation 2), Flue mRNA 0.25 mg/kg, tail vein injection, whole body signal 6 h after LNP injection, 10 min after 150 mg/kg D-luciferin i.p.

Compound: CC/C=C\C/C=C\C/C=C\C/C=C\C/C=C\CCCC(=O)N(CCCN(C)C)C(C(=O)NCCCCCCCCCCCCCC)C(C)(C)C (stereo not shown) [Lipid 157]
- transfection (delivery) efficiency of LNP in 293T cells (293T cells): relatively high delivery efficiency
- transfection (delivery) efficiency of LNP in A549 cells (A549 cells): relatively high delivery efficiency
- Chemiluminescent signal (p/s) (C57Bl/6 mice; [3]): 4.26E+09 p/s

Compound: CCCCCCCCCCCOC(=O)CCCCCN(CCO)CCCCCCCC(=O)OC(CCCCCCCC)CCCCCCCC [SM102, heptadec-9-yl-8-((2-hydroxyethyl) (6-oxo-6-((undecyloxy)hexyl)amino) octanoate, reference compound]
- Particle size ([1]; LNP with RSV-mRNA, lipid ratio of formulation 1, N/P 6): 96.1 nm
- encapsulation efficiency [2]: 97.9%
- Chemiluminescent signal (p/s) (C57Bl/6 mice; [3]): 3.93E+09 p/s

Compound: CCCCCCCCCCCC(=O)N(CCCN(C)C)C(C(=O)NCCCCCCCC(=O)OC(CCCCCCCC)CCCCCCCC)C(C)(C)C (stereo not shown) [Lipid 234]
- PDI [1, 4]: 0.17
- Particle size [1, 4]: 240.23 ± 1.39 nm·days
- Chemiluminescent signal (p/s) (C57Bl/6 mice; [3]): 1.16E+10 p/s

Compound: CCCCCCCCC(CCCCCCCC)OC(=O)CCCCCCCNC(=O)C(N(CCCN(C)C)C(=O)CCCCCCC(=O)OCC(C)CCCCCCC)C(C)(C)C (stereo not shown) [Lipid 420]
- PDI [1, 4]: 0.22
- Particle size [1, 4]: 110.3 ± 1.65 nm·days
- Chemiluminescent signal (p/s) (C57Bl/6 mice; [5]): 6.69E+09 p/s

Compound: CCCCCCCCCCCCCCNC(=O)C(N(CCCN(CC)CC)C(=O)CCCCCCCCCCCCC)C(C)(C)C (stereo not shown) [Lipid 159]
- PDI [1, 4]: 0.22
- Particle size [1, 4]: 136.93 ± 2.95 nm·days
- Chemiluminescent signal (p/s) (C57Bl/6 mice; [3]): 2.30E+09 p/s

Compound: CC/C=C\C/C=C\C/C=C\C/C=C\C/C=C\CCCC(=O)N(CCCN(CC)CC)C(C(=O)NCCCCCCCCCCCCCC)C(C)(C)C (stereo not shown) [Lipid 162]
- PDI [1, 4]: 0.27
- Particle size [1, 4]: 261.64 ± 5.92 nm·days
- Chemiluminescent signal (p/s) (C57Bl/6 mice; [3]): 6.66E+09 p/s

Compound: CCCCCCCCC(CC)OC(=O)CCCCCCC(=O)N(CCCN(C)C)C(C(=O)NCCCCCCOC(=O)C(CCCCCC)CCCCCCCC)C(C)(C)C (stereo not shown) [Lipid 406]
- PDI [1, 4]: 0.17
- Particle size [1, 4]: 95.9 ± 0.75 nm·days
- Chemiluminescent signal (p/s) (C57Bl/6 mice; [5]): 1.04E+11 p/s

Compound: CCCCCCCC(C)COC(=O)CCCCCCCNC(=O)C(N(CCCN(C)C)C(=O)CCCCCCCCCC(=O)OC(CCCCCC)CCCCCC)C(C)(C)C (stereo not shown) [Lipid 409]
- PDI [1, 4]: 0.25
- Particle size [1, 4]: 95 ± 0.75 nm·days
- Chemiluminescent signal (p/s) (C57Bl/6 mice; [5]): 3.08E+10 p/s

Compound: CCCCC/C=C\C/C=C\CCCCCCCC(=O)N(CCCN(C)C)C(C(=O)NCCCCCCCC(=O)OC(CCCCCCCC)CCCCCCCC)C(C)(C)C (stereo not shown) [Lipid 175]
- PDI [1, 4]: 0.18
- Particle size [1, 4]: 178.88 ± 3.61 nm·days
- Chemiluminescent signal (p/s) (C57Bl/6 mice; [3]): 7.07E+09 p/s
- delivery efficiency in mRNA mouse in vivo delivery (C57Bl/6 mice; result in words): high delivery efficiency

Compound: CCCCC/C=C\C/C=C\CCCCCCCC(=O)N(CCCN(C)C)C(C(=O)NCCCCCCCC(=O)OC(CCCCCCCC)CCCCCCCC)C(C)C (stereo not shown) [Lipid 942]
- PDI [1, 4]: 0.25
- Particle size [1, 4]: 135.8 ± 2.13 nm·days
- Chemiluminescent signal (p/s) (C57Bl/6 mice; [5]): 8.15E+08 p/s

Compound: CCCCCCCCCCCCCC(=O)N(CCCN(C)CCO)C(C(=O)NCCCCCCCCCCCC)C(C)(C)C (stereo not shown) [Lipid 189]
- PDI [1, 4]: 0.19
- Particle size [1, 4]: 188.99 ± 4.55 nm·days
- Chemiluminescent signal (p/s) (C57Bl/6 mice; [3]): 3.32E+08 p/s

Compound: CCCCCCCCCCCC(=O)N(CCCN(C)C)C(C(=O)NCCCOC(=O)CCCCCCCC)C(C)(C)C (stereo not shown) [Lipid 163]
- PDI [1, 4]: 0.17
- Particle size [1, 4]: 200.94 ± 5.63 nm·days
- Chemiluminescent signal (p/s) (C57Bl/6 mice; [3]): 1.73E+09 p/s

Compound: CCCCCCCCC(CC)OC(=O)CCCCCCCNC(=O)C(N(CCCN(C)C)C(=O)CCCCCCC(=O)OC(CC)CCCCCCCC)C(C)(C)C (stereo not shown) [Lipid 401]
- PDI [1, 4]: 0.19
- Particle size [1, 4]: 93.6 ± 0.84 nm·days
- Chemiluminescent signal (p/s) (C57Bl/6 mice; [5]): 5.92E+10 p/s

Compound: CCCCCCCCCCCC(=O)N(CCCN(CC)CC)C(C(=O)NCCCCCCCC(=O)OC(CCCCCCCC)CCCCCCCC)C(C)(C)C (stereo not shown) [Lipid 237]
- PDI [1, 4]: 0.14
- Particle size [1, 4]: 234.57 ± 1.84 nm·days
- Chemiluminescent signal (p/s) (C57Bl/6 mice; [3]): 3.86E+09 p/s

Compound: CCCCCCCC/C=C\CCCCCCCCNC(=O)C(N(CCCN(C)C)C(=O)CCCCCCC/C=C\C[C@H](O)CCCCCC)C(C)(C)C (stereo partly shown) [Lipid 16]
- PDI [1, 4]: 0.26
- Particle size [1, 4]: 128.73 ± 1.97 nm·days
- Chemiluminescent signal (p/s) (C57Bl/6 mice; [3]): 6.94E+09 p/s

Compound: CCCCCCCCC(CC)OC(=O)CCCCCCCNC(=O)C(N(CCCN(C)C)C(=O)CCCCCCCCCC(=O)OC(CCCCCC)CCCCCC)C(C)(C)C (stereo not shown) [Lipid 407]
- PDI [1, 4]: 0.18
- Particle size [1, 4]: 97.4 ± 0.64 nm·days
- Chemiluminescent signal (p/s) (C57Bl/6 mice; [5]): 8.00E+10 p/s

Compound: CCCCCCCC/C=C\CCCCCCCCOC(=O)CCC(=O)N(CCCN(C)C)C(C(=O)NCCCC(=O)OCCCCCCCC)C(C)(C)C (stereo not shown) [Lipid 223]
- PDI [1, 4]: 0.19
- Particle size [1, 4]: 190.71 ± 1.15 nm·days
- Chemiluminescent signal (p/s) (C57Bl/6 mice; [3]): 1.26E+10 p/s

Compound: CCCCCCCCCCCC(=O)N(CCCN(C)CCCCO)C(C(=O)NCCCCCCCC(=O)OC(CCCCCCCC)CCCCCCCC)C(C)(C)C (stereo not shown) [Lipid 240]
- PDI [1, 4]: 0.19
- Particle size [1, 4]: 204.35 ± 3.72 nm·days
- Chemiluminescent signal (p/s) (C57Bl/6 mice; [3]): 5.76E+08 p/s

From patent EP4644377A1, “LIPID COMPOUND FOR GENE DELIVERY AND LIPID NANOPARTICLE COMPRISING SAME” (NANJING CYBERNAX BIOMEDICAL TECHNOLOGY CO., LTD., priority 2022, dated 2024)
